Results from patent publication US6770782B1, “Process for the production of potassium hydroxy citric acid, and compositions containing the potassium hydroxy citric acid” (Sabinsa Corporation, priority 1995, dated 2004).
“Also recorded” adds a separate entry of the source.

How the values were obtained:
[1] = stability of the product in solid state and in aqueous solution; type: physicochemical
Protocol: The stability of the product was evaluated in solid state and in aqueous solution in temperature and humidity conditions as specified below. The following parameters of the product were considered: physical appearance, specific rotation, HCA content by HPLC, lactone content by HPLC. […]
b) 37°±2° C. and 75%±2 relative humidity c) 45°±2° C. and 75%±2 relative humidity
2. In solution form (5% in water)

[2] = solubility (product specification); type: physicochemical
citrate lyase = target: T1, citrate lyase (Homo sapiens, UniProt P53396); conditions: cited from earlier work
T1 sequence (P53396 1-1101): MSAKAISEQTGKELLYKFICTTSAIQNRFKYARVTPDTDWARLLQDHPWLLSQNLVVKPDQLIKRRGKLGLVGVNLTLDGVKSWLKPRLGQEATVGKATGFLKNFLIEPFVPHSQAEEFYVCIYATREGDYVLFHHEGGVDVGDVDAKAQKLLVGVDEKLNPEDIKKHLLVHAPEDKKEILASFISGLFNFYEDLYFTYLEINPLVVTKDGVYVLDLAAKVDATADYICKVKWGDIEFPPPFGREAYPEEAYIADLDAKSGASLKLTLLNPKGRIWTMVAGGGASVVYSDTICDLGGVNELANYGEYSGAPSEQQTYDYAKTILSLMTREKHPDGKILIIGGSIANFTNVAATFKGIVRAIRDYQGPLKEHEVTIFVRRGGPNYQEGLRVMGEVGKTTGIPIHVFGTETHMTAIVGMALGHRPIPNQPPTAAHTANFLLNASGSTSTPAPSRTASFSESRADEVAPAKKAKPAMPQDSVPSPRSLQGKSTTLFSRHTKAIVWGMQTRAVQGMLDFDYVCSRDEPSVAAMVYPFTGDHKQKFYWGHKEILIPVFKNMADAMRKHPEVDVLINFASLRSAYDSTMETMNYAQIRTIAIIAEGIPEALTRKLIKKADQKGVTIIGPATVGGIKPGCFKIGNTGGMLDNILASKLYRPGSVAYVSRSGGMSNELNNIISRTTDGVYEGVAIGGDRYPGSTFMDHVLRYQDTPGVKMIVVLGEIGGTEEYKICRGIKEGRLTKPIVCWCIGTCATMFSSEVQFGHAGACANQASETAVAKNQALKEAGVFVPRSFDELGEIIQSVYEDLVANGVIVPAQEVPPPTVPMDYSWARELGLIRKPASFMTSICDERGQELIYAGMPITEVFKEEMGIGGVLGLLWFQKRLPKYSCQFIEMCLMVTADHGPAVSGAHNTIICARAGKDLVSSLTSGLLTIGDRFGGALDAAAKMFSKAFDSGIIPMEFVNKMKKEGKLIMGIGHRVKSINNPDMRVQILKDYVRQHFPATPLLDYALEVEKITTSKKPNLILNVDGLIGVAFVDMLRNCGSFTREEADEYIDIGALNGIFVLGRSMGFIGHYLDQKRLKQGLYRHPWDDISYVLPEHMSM

[3] = free acid converts to lactone; cited from earlier work
[4] = rats, cited from earlier work
[5] = system: gluconeogenesis in rat liver; conditions: HCA-treated rats; cited from earlier work
[6] = in vivo; cited from earlier work

Compound | stable under normal storage conditions ([1]; extrapolated from 90 day stress results) | stable under stress conditions ([1]; higher temperature and higher humidity, solid state and 5% in water) [days] | Solubility ([2]; citrate) | Solubility ([2]; listed as potassium hydroxy citrate) | inhibiting the citrate lyase (citrate lyase; lactone form) | stability of the form [3] | less weight gained than the controls ([4]; 80 day study period) [%] | net reduction in food consumption ([4]; 80 day study period) [%] | food consumption suppressed ([4]; HCA 1% or more of the diet) [%] | Ki (citrate lyase; competitive inhibition, read-out: Ki, competitive inhibitor of citrate lyase) [nM] | affinity of the enzyme for HCA versus affinity for citric acid (citrate lyase; relative to citric acid) | rate of gluconeogenesis from lactate or alanine [5] | brain uptake [6]
potassium hydroxy citrate [CITRIN®-K] | about 5 years | ≥ 90 | Soluble in water, acids and aqueous; also recorded: alcohols. Insoluble in solvents like | water soluble |  |  |  |  |  |  |  |  | 
O=C1C[C@@](O)(C(=O)O)[C@@H](C(=O)O)O1 [HCA in lactone form, hydroxy citric acid lactone] |  |  |  |  | inactive, or less active | stable |  |  |  |  |  |  | 
O=C(O)CC(O)(C(=O)O)C(O)C(=O)O (centres unmarked) [HCA, hydroxycitric acid] |  |  |  |  |  | not stable | 78 | 4 | ≥ 10 | 150 | over a hundred times greater | approximately doubled | negligible
